Test results: patent publication US9796700B2 (Celgene CAR LLC, priority 2013, dated 2017)

Biological target: Erk1 (Homo sapiens (Human), UniProt P27361)
Experiment: Protein Mass Modification Assay (intact protein MALDI)
Format: binding
Procedure: Protein Mass Modification Assay
Intact protein: Erk1 from Millipore (Cat. No. 14-439) was incubated for 60 min. at room temperature with a 10-fold excess of test compound to protein. 4 μL aliquots of the resulting mixture were diluted with 15 μL of 0.2% TFA prior to micro C4 ZipTipping directly onto the MALDI target using sinapinic acid as the desorption matrix (10 mg/ml in 0.1% TFA:Acetonitrile 50:50, v/v). The centroid mass of the target protein in the control sample was compared with the centroid mass of the target protein incubated with compound. A shift in the centroid mass of the treated protein compared to the untreated protein was divided by the molecular weight of the compound. This number corresponds to the percentage of modified protein after one hour incubation. Results from this assay are reported in Table A under the column “ERK1 Mass Mod (%).”

Chain of Erk1 (P27361 whole entry, looked up): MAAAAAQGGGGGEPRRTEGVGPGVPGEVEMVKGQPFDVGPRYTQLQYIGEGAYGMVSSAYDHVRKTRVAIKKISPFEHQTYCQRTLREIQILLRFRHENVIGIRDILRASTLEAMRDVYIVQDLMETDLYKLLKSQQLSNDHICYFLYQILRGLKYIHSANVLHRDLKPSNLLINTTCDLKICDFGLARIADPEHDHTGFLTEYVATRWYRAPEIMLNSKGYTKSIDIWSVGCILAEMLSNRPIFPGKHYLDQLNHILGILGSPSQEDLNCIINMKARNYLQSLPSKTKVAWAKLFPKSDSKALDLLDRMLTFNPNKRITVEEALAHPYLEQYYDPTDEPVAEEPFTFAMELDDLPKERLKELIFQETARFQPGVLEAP

Structure (SMILES) | ERK1 Mass Mod (%)
C=CC(=O)Nc1ccccc1Nc1nc(N[C@@H]2CCC[C@H](C(=O)NOCCO)C2)ncc1C(F)(F)F (racemic) [Compound I-4, Rac-cis-3-((4-((2-acrylamidophenyl)amino)-5-(trifluoromethyl)pyrimidin-2-yl)amino)-N-(2-hydroxyethoxy)cyclohexanecarboxamide] | F (provided a mass modification of 31-69%)
C=CC(=O)N[C@H]1CCCC[C@@H]1Nc1nc(N[C@H]2CCCN(C(=O)CO)C2)ncc1C(F)(F)F (racemic) [Compound I-27, Rac-N-(2-((2-(((R)-1-(2-hydroxyacetyl)piperidin-3-yl)amino)-5-(trifluoromethyl)pyrimidin-4-yl)amino)-trans-cyclohexyl)acrylamide] | F (provided a mass modification of 31-69%)
C=CC(=O)N(C)c1ccccc1Nc1nc(N[C@@H]2CCC[C@H](C(N)=O)C2)ncc1Cl (racemic) [Compound I-105, Rac-cis-3-((5-chloro-4-((2-(N-methylacrylamido)phenyl)amino)pyrimidin-2-yl)amino)cyclohexanecarboxamide] | F (provided a mass modification of 31-69%)
C=CC(=O)N(C)c1ccccc1Nc1nc(N[C@@H]2CCC[C@H](C(=O)NOC)C2)ncc1Cl (racemic) [Compound I-106, Rac-cis-3-((5-chloro-4-((2-(N-methylacrylamido)phenyl)amino)pyrimidin-2-yl)amino)-N-methoxycyclohexanecarboxamide] | F (provided a mass modification of 31-69%)
C/C=C/C(=O)Nc1cc(F)ccc1Nc1nc(N[C@@H]2CCC[C@H](C(N)=O)C2)ncc1Cl (racemic) [Compound I-113, Rac-cis-(E)-3-((4-((2-(but-2-enamido)-4-fluorophenyl)amino)-5-chloropyrimidin-2-yl)amino)cyclohexanecarboxamide] | F (key: E: provided a mass modification of ≧70%; F: provided a mass modification of 31-69%; G: proived a mass modification ≦30%)
C=C(C)C(=O)Nc1cc(F)ccc1Nc1nc(N[C@@H]2CCC[C@H](C(N)=O)C2)ncc1Cl (racemic) [Compound I-114, Rac-cis-3-((5-chloro-4-((4-fluoro-2-methacrylamidophenyl)amino)pyrimidin-2-yl)amino)cyclohexanecarboxamide] | F (provided a mass modification of 31-69%)
C=CC(=O)Nc1ccccc1Nc1nc(N[C@H]2CCC[C@@H](CO)C2)ncc1Cl (racemic) [Compound I-121, Rac-cis-N-(2-((5-chloro-2-((3-(hydroxymethyl)cyclohexyl)amino)pyrimidin-4-yl)amino)phenyl)acrylamide] | E (key: E: provided a mass modification of ≧70%; F: provided a mass modification of 31-69%; G: proived a mass modification ≦30%)
C=CC(=O)N[C@H]1CCCC[C@@H]1Nc1nc(N[C@H]2CCCN(C(=O)CO)C2)ncc1Cl (racemic) [Compound I-141, Rac-N-(2-((5-chloro-2-(((R)-1-(2-hydroxyacetyl)piperidin-3-yl)amino)pyrimidin-4-yl)amino)-trans-cyclohexyl)acrylamide] | E (provided a mass modification of ≧70%)
C=CC(=O)N[C@@H]1CCCC[C@H]1Nc1nc(Nc2cc(C(=O)NOC)ccc2C)ncc1Cl (racemic) [Compound I-188, Rac-trans-3-((4-((2-acrylamidocyclohexyl)amino)-5-chloropyrimidin-2-yl)amino)-N-methoxy-4-methylbenzamide] | F (provided a mass modification of 31-69%)
C=CC(=O)N[C@@H]1CCCC[C@H]1Nc1nc(Nc2cc(C(N)=O)ccc2C)ncc1C(N)=O (racemic) [Compound I-255, Rac-trans-4-((2-acrylamidocyclohexyl)amino)-2-((5-carbamoyl-2-methylphenyl)amino)pyrimidine-5-carboxamide] | F (provided a mass modification of 31-69%)

Now from value to compound:

ERK1 Mass Mod (%) | Structure (SMILES)
E (provided a mass modification of ≧70%) | C=CC(=O)Nc1ccccc1Nc1nc(N[C@@H]2CCC[C@H](C(=O)NOC)C2)ncc1C(F)(F)F (racemic) [Compound I-3, Rac-cis-3-((4-((2-acrylamidophenyl)amino)-5-(trifluoromethyl)pyrimidin-2-yl)amino)-N-methoxycyclohexanecarboxamide]
E (provided a mass modification of ≧70%) | C=CC(=O)Nc1cc(F)ccc1Nc1nc(N[C@@H]2CCC[C@H](C(N)=O)C2)ncc1C(F)(F)F (racemic) [Compound I-5, Rac-cis-3-((4-((2-acrylamido-4-fluorophenyl)amino)-5-(trifluoromethyl)pyrimidin-2-yl)amino)cyclohexanecarboxamide]
E (provided a mass modification of ≧70%) | C/C=C/C(=O)Nc1cc(F)ccc1Nc1nc(N[C@@H]2CCC[C@H](C(N)=O)C2)ncc1C(F)(F)F (racemic) [Compound I-6, Rac-(E)-3-((4-((2-(but-2-enamido)-4-fluorophenyl)amino)-5-(trifluoromethyl)pyrimidin-2-yl)amino)-cis-cyclohexanecarboxamide]
E (provided a mass modification of ≧70%) | C=CC(=O)Nc1ccccc1Nc1nc(N[C@@H]2CCC[C@H](C(=O)O)C2)ncc1C(F)(F)F (racemic) [Compound I-14, Rac-3-((4-((2-acrylamidophenyl)amino)-5-(trifluoromethyl)pyrimidin-2-yl)amino)-cis-cyclohexanecarboxylic acid]
G (proived a mass modification ≦30%) | CC(=O)N1CCC[C@H](Nc2ncc(C(F)(F)F)c(NC3C4C=CC(C4)C3C(=O)NC#N)n2)C1 (mixture of isomers) [Compound I-25, Rac-3-((2-(((S)-1-acetylpiperidin-3-yl)amino)-5-(trifluoromethyl)pyrimidin-4-yl)-cis-amino)-N-cyanobicyclo[2.2.1]hept-5-ene-2-carboxamide]
E (provided a mass modification of ≧70%) | C=CC(=O)Nc1ccccc1Nc1nc(N[C@@H]2CCC[C@H](C(=O)NOCCO)C2)ncc1Cl (racemic) [Compound I-103, Rac-3-((4-((2-acrylamidophenyl)amino)-5-chloropyrimidin-2-yl)amino)-N-(2-hydroxyethoxy)-cis-cyclohexanecarboxamide]
E (provided a mass modification of ≧70%) | C=CC(=O)Nc1cc(F)ccc1Nc1nc(N[C@@H]2CCC[C@H](C(N)=O)C2)ncc1Cl (racemic) [Compound I-112, Rac-cis-3-((4-((2-acrylamido-4-fluorophenyl)amino)-5-chloropyrimidin-2-yl)amino)cyclohexanecarboxamide]
E (provided a mass modification of ≧70%) | C=CC(=O)Nc1ccccc1Nc1nc(N[C@@H]2CCC[C@H](C(=O)NOC)C2)ncc1Cl (racemic) [Compound I-203, Rac-cis-3-((4-((2-acrylamidophenyl)amino)-5-chloropyrimidin-2-yl)amino)-N-methoxy-cyclohexanecarboxamide]
E (provided a mass modification of ≧70%) | C=CC(=O)N[C@@H]1CCCC[C@H]1Nc1nc(Nc2cc(C(N)=O)ccc2C)ncc1Cl (racemic) [Compound I-226, Rac-trans-3-((4-((2-acrylamidocyclohexyl)amino)-5-chloropyrimidin-2-yl)amino)-4-methylbenzamide]
